# Measurements taken from ChEMBL document CHEMBL4811250, “Discovery and Optimization of 2H-1λ2-Pyridin-2-one Inhibitors of Mutant Isocitrate Dehydrogenase 1 for the Treatment of Cancer” (J Med Chem, 2021).
# pIC50: −log10 of the molar value.
# Key:
# [1] = test system: Isocitrate dehydrogenase [NADP] cytoplasmic (Homo sapiens), O75874 [R132C]; test: Inhibition of IDH1 R132C mutant (unknown origin) assessed as reduction in NADPH consumption using alpha-KG as substrate at 38 uM incubated for 5 mins by diaphorase/resazurin-coupled system relative to control
# [2] = test system: Isocitrate dehydrogenase [NADP] cytoplasmic (Homo sapiens), O75874 [R132H]; test: Inhibition of IDH1 R132H mutant (unknown origin) assessed as reduction in NADPH consumption using alpha-KG as substrate at 38 uM incubated for 5 mins by diaphorase/resazurin-coupled system relative to control
# [3] = biological target: Isocitrate dehydrogenase [NADP] cytoplasmic (Homo sapiens, UniProt O75874, R132H); test: Inhibition of IDH1 R132H mutant (unknown origin) assessed as reduction in NADPH consumption using alpha-KG as substrate incubated for 5 mins by diaphorase/resazurin-coupled system
# [4] = biological target: Isocitrate dehydrogenase [NADP] cytoplasmic (Homo sapiens, UniProt O75874, R132C); test: Inhibition of IDH1 R132C mutant (unknown origin) assessed as reduction in NADPH consumption using alpha-KG as substrate incubated for 5 mins by diaphorase/resazurin-coupled system
# Sequence of Isocitrate dehydrogenase [NADP] cytoplasmic (Homo sapiens, UniProt O75874, R132C) (O75874 2-414 R132C limits assumed): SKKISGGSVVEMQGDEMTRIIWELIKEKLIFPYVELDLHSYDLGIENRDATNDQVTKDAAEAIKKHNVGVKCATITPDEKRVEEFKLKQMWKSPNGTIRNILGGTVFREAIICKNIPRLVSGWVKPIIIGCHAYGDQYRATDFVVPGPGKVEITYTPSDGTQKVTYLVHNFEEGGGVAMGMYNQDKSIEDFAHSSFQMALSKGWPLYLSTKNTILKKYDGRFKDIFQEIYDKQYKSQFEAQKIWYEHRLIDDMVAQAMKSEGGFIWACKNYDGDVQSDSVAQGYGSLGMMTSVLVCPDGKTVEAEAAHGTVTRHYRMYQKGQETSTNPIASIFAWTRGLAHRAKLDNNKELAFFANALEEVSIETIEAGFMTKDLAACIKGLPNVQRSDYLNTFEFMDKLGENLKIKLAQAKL
# Sequence of Isocitrate dehydrogenase [NADP] cytoplasmic (Homo sapiens), O75874 [R132H] (O75874 whole entry R132H): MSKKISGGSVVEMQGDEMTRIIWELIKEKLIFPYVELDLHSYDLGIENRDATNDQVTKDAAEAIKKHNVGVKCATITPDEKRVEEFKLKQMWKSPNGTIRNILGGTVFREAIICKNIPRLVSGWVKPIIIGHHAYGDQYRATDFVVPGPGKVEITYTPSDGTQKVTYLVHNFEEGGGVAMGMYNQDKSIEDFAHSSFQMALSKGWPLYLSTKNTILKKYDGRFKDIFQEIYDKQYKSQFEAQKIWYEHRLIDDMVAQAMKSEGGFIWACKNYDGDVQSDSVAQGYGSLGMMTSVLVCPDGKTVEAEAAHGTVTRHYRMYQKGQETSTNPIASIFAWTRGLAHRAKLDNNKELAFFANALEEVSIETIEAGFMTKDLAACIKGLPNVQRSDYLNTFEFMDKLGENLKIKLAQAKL
# Sequence of Isocitrate dehydrogenase [NADP] cytoplasmic (Homo sapiens, UniProt O75874, R132H) (O75874 2-414 R132H limits assumed): as the sequence (O75874 2-414 R132C limits assumed) above, with C131H counted along it
# Sequence of Isocitrate dehydrogenase [NADP] cytoplasmic (Homo sapiens), O75874 [R132C] (O75874 whole entry R132C): as the sequence (O75874 whole entry R132H) above, with H132C counted along it
Compound,inhibition [1],inhibition [2],pIC50 [3],pIC50 [4]
COc1ccc(OC)c(-n2c3c(cc(-c4nc(-c5ccc(Cl)cc5)cs4)c2=O)C(=O)CC3)c1,29%,38%,–,–
CCc1cccc(CC)c1-n1c(C=C(C)C)c(C(=O)N2CCNC(C#N)C2)cc(-c2nc(-c3ccc(Cl)cc3)cs2)c1=O (stereo unspecified),–,–,6.80,7.25
COc1ccc(OC)c(-n2c3c(cc(-c4nc5cc(Cl)ccc5s4)c2=O)C(=O)CC(C)(C)C3)c1,–,–,< 4.42,< 4.42
CCc1cccc(CC)c1-n1c(C)c(C(=O)NC(C)(C)C)cc(-c2nc(-c3ccc(Cl)cc3)cs2)c1=O,49%,65%,–,–
COc1ccncc1-n1c2c(cc(-c3nc(-c4ccc(Cl)cc4)cs3)c1=O)C(=O)CC(C)(C)C2,–,–,< 4.42,< 4.42
COc1ccc(OC)c(-n2c3c(cc(-c4nc(-c5ccc(Cl)cc5)cs4)c2=O)C(=O)NCC3)c1,65%,84%,5.64,–
CC1(C)CC(=O)c2cc(-c3nc(-c4ccc(Cl)cc4)cs3)c(=O)n(-c3ccccc3F)c2C1,49%,65%,–,–
CC1(C)CC(=O)c2cc(-c3nc(-c4ccc(Cl)cc4)cs3)c(=O)n(-c3ccccc3OCc3ccccc3)c2C1,61%,38%,–,–
COc1ccc(OC)c(-n2c3c(cc(-c4ccn(-c5ccccc5)n4)c2=O)C(=O)CC(C)(C)C3)c1,46%,84%,5.51,–
COc1ccc(OC)c(-n2c3c(cc(-c4c[nH]c(-c5ccccc5)n4)c2=O)C(=O)CC(C)(C)C3)c1,39%,75%,5.68,–
CC(C)c1ccccc1-n1c2c(cc(-c3nc(-c4ccc(Cl)cc4)cs3)c1=O)C(=O)CC(C)(C)C2,61%,62%,–,–
CC1(C)CC(=O)c2cc(-c3nc(-c4ccc(Cl)cc4)cs3)c(=O)n(-c3ccccn3)c2C1,39%,47%,–,–
COc1cccc(C)c1-n1c2c(cc(-c3nc(-c4ccc(Cl)cc4)cs3)c1=O)C(=O)CC(C)(C)C2,72%,81%,5.68,–
COc1ccc(OC)c(-n2c3c(cc(-n4cnc(-c5ccccc5)c4)c2=O)C(=O)CC(C)(C)C3)c1,44%,59%,–,–
CCc1cccc(CC)c1-n1c(C)c(C(=O)Nc2ccccc2)cc(-c2nc(-c3ccc(Cl)cc3)cs2)c1=O,69%,40%,–,–
CCc1cccc(CC)c1-n1c(C)c(C(=O)NCc2ccccc2)cc(-c2nc(-c3ccc(Cl)cc3)cs2)c1=O,41%,–,< 4.42,–
COc1c(C(=O)O)cccc1-n1c2c(cc(-c3nc(-c4ccc(Cl)cc4)cs3)c1=O)C(=O)CC(C)(C)C2,65%,82%,4.85,–
CC(C)n1c2c(cc(-c3nc(-c4ccc(Cl)cc4)cs3)c1=O)C(=O)CC(C)(C)C2,33%,31%,–,–
COc1cc(C(=O)O)ccc1-n1c2c(cc(-c3nc(-c4ccc(Cl)cc4)cs3)c1=O)C(=O)CC(C)(C)C2,43%,–,–,–
CC1(C)CC(=O)c2cc(-c3nc(-c4ccc(Cl)cc4)cs3)c(=O)n(-c3sccc3C#N)c2C1,90%,100%,6.59,–
CC1(C)CC(=O)c2cc(-c3nc(-c4ccc(Cl)cc4)cs3)c(=O)n(-c3ccccc3Cl)c2C1,70%,83%,5.89,–
CCc1cccc(CC)c1-n1c(C)c(C(=O)N2CCCCC2)cc(-c2nc(-c3ccc(Cl)cc3)cs2)c1=O,65%,51%,–,–
CNc1ccccc1-n1c2c(cc(-c3nc(-c4ccc(Cl)cc4)cs3)c1=O)C(=O)CC(C)(C)C2,43%,59%,–,–

Compound,inhibition [1],inhibition [2],pIC50 [3],pIC50 [4]
COc1ccc(OC)c(-n2c3c(cc(-n4ccc(-c5ccccc5)n4)c2=O)C(=O)CC(C)(C)C3)c1,41%,71%,–,–
CC1(C)CC(=O)c2cc(-c3nc(-c4ccc(Cl)cc4)cs3)c(=O)n(-c3ccccc3N)c2C1,42%,57%,–,–
CCc1cccc(CC)c1-n1c(C)c(C(=O)NC)cc(-c2nc(-c3ccc(Cl)cc3)cs2)c1=O,64%,87%,5.82,–
CC1(C)CC(=O)c2cc(-c3nc(-c4ccc(Cl)cc4)cs3)c(=O)n(-c3ccccc3-c3ccccc3)c2C1,67%,59%,–,–
COc1ccc(OC)c(-n2c3c(cc(-c4cc(-c5ccccc5)[nH]n4)c2=O)C(=O)CC(C)(C)C3)c1,41%,47%,–,–
COc1ccc(OC)c(-n2c3c(cc(-c4cccc(-c5ccc(Cl)cc5)n4)c2=O)C(=O)CC(C)(C)C3)c1,46%,67%,–,–
Cc1ccccc1-n1c2c(cc(-c3nc(-c4ccc(Cl)cc4)cs3)c1=O)C(=O)CC(C)(C)C2,64%,74%,–,–
COc1ccc(OC)c(-n2c3c(cc(-c4nc(-c5ccc(Cl)cc5)cs4)c2=O)CCC(C)(C)C3)c1,64%,87%,5.44,–
CC1(C)CC(=O)c2cc(-c3nc(-c4ccc(Cl)cc4)cs3)c(=O)n(-c3ccccc3O)c2C1,61%,71%,–,–
COc1ccc(OC)c(-n2c3c(cc(-c4nc(-c5ccc(Cl)cc5)cs4)c2=O)C(=O)CCC3)c1,43%,62%,–,–
CCc1cccc(CC)c1-n1c(C)c(C(=O)NC(C)C)cc(-c2nc(-c3ccc(Cl)cc3)cs2)c1=O,54%,47%,5.55,–
COc1ccccc1Cn1c2c(cc(-c3nc(-c4ccc(Cl)cc4)cs3)c1=O)C(=O)CC(C)(C)C2,53%,61%,–,–
COc1ccc(OC)c(-n2c3c(cc(-c4nc(-c5ccccc5)cs4)c2=O)C(=O)CC(C)(C)C3)c1,59%,77%,5.92,–
CC1(C)CC(=O)c2cc(-c3nc(-c4ccc(Cl)cc4)cs3)c(=O)n(-c3ccccc3C(F)(F)F)c2C1,87%,96%,6.57,–
COc1ccccc1-n1c2c(cc(-c3nc(-c4ccc(Cl)cc4)cs3)c1=O)C(=O)CC(C)(C)C2,65%,76%,5.62,–
CN(C)c1ccccc1-n1c2c(cc(-c3nc(-c4ccc(Cl)cc4)cs3)c1=O)C(=O)CC(C)(C)C2,57%,56%,–,–
COc1ccc(OC)c(-n2c3c(cc(-c4nc(-c5ccc(Cl)cc5)cs4)c2=O)C(=O)CNC3)c1,32%,75%,5.10,–
COc1cccc(-n2c3c(cc(-c4nc(-c5ccc(Cl)cc5)cs4)c2=O)C(=O)CC(C)(C)C3)c1OC,35%,64%,–,–
CC1(C)CC(=O)c2cc(-c3nc(-c4ccc(Cl)cc4)cs3)c(=O)n(-c3ccccc3Oc3ccccc3)c2C1,60%,30%,–,–
CCc1cccc(CC)c1-n1c(C)c(C(=O)NC2CCCCC2)cc(-c2nc(-c3ccc(Cl)cc3)cs2)c1=O,31%,–,< 4.42,–
CC1(C)CC(=O)c2cc(-c3nc(-c4ccc(Cl)cc4)cs3)c(=O)n(-c3ccccc3)c2C1,38%,47%,–,–
COc1ccc(OC)c(-n2c(=O)c(-c3nc(-c4ccc(Cl)cc4)cs3)cc3c(O)cccc32)c1,36%,35%,–,–
CCc1cccc(CC)c1-n1c(C)c(C(=O)O)cc(-c2nc(-c3ccc(Cl)cc3)cs2)c1=O,72%,102%,5.14,–
